# Laboratory results from patent publication US6525001B1, “Substituted pyrimidine and pyridine herbicides” (Mid-American Commercialization Corporation, priority 1997, dated 2003).
# Assays:
# Format in all cases: in vivo
# [1] = tested on: sandbur (Cenchrus echinatus); assay: Test E pre-/postemergence/post directed; conditions: PREEMERGENCE
# Excerpt: (§1) Seeds, tubers, or plant parts of alexandergrass (Brachiaria plantaginea), annual bluegrass (Poa annua), arrowleaf sida (Sida rhombifolia), barnyardgrass (Echinochloa crus-galli), bermudagrass (Cynodon dactylon), citrus (Citrus sinensis), common chickweed (Stellaria media), common purslane (Portulaca oleracea), common ragweed (Ambrosia elatior), common groundsel (Senecio vulgaris), dallisgrass (Paspalum dilatatum), goosegrass (Eleusine indica), green foxtail (Setaria viridis), guineagrass (Panicum maximum), itchgrass (Rottboellia exaltata), johnson grass (Sorghum halepense), kochia (Kochia scoparia), large crabgrass (Digitaria sanguinalis), leafy spurge (Euphorbia esula), pitted morningglory (Ipomoea lacunosa), purple nutsedge (Cyperus rotundus), quackgrass (Agropyron repens), Russian thistle (Salsola kali), sandbur (Cenchrus echinatus), sourgrass (Trichachne insularis), Spanishneedles (Bidens bipinnata), sugarcane (Saccharum officinarum), surinam grass (Brachiaria decumbens) and tall mallow (Malva sylvestris) were planted into greenhouse pots of flats containing greenhouse planting medium. Plant species were grown grown in separate pots or individual compartments. Preemergence applications were made within one day of planting the seed or plant part. Postemergence applications were applied when the plants were in the two to four leaf stage (three to twenty cm).
# (§2) Test chemicals were formulated in a non-phytotoxic solvent mixture which included a surfactant and applied preemergence to the soil surface, postemergence to the plants or as a post directed spray to plants and soil at the base of the target species. Untreated control plants and treated plants were placed in the greenhouse and visually evaluated for injury 13 to 21 days after herbicide application. Plant response ratings, summarized in Table E, are based on a 0 to 100 scale where 0 is no injury and 100 is complete control. A dash (−) response means no test result.
# [2] = tested on: johnson grass (Sorghum halepense); assay: Test E pre-/postemergence/post directed
# Excerpt: as §1, §2
# [3] = tested on: alexandergrass (Brachiaria plantaginea); assay: Test E pre-/postemergence/post directed
# Excerpt: as §1, §2
# [4] = tested on: surinam grass (Brachiaria decumbens); assay: Test E pre-/postemergence/post directed
# Excerpt: as §1, §2
# [5] = tested on: common groundsel (Senecio vulgaris); assay: Test E pre-/postemergence/post directed
# Excerpt: as §1, §2
# [6] = tested on: large crabgrass (Digitaria sanguinalis); assay: Test E pre-/postemergence/post directed
# Excerpt: as §1, §2
# [7] = tested on: common ragweed (Ambrosia elatior); assay: Test E pre-/postemergence/post directed
# Excerpt: as §1, §2
# [8] = tested on: Spanishneedles (Bidens bipinnata); assay: Test E pre-/postemergence/post directed
# Excerpt: as §1, §2
# [9] = tested on: itchgrass (Rottboellia exaltata); assay: Test E pre-/postemergence/post directed
# Excerpt: as §1, §2
# [10] = tested on: bermudagrass (Cynodon dactylon); assay: Test E pre-/postemergence/post directed
# Excerpt: as §1, §2
# [11] = tested on: pitted morningglory (Ipomoea lacunosa); assay: Test E pre-/postemergence/post directed
# Excerpt: as §1, §2
# [12] = tested on: soybean (Glycine max); assay: Test C; design: key: 0 was no effect; 100 was complete control; conditions: PREEMERGENCE
# [13] = tested on: ivyleaf morningglory (Ipomoea hederacea); assay: Test C; conditions: PREEMERGENCE
# [14] = tested on: large crabgrass (Digitaria sanguinalis); assay: Test C; design: key: 0 was no effect; 100 was complete control; conditions: PREEMERGENCE
# [15] = tested on: cocklebur (Xanthium strumarium); assay: Test C; design: key: 0 was no effect; 100 was complete control; conditions: PREEMERGENCE
# [16] = tested on: purple nutsedge (Cyperus rotundus); assay: Test C; design: key: 0 was no effect; 100 was complete control; conditions: PREEMERGENCE
# [17] = tested on: sandbur (Cenchrus echinatus); assay: Test E pre-/postemergence/post directed; design: key: 0 is no injury; 100 is complete control; conditions: POSTEMERGENCE
# Excerpt: as §1, §2
# [18] = tested on: purple nutsedge (Cyperus rotundus); assay: Test E pre-/postemergence/post directed; design: key: 0 is no injury; 100 is complete control
# Excerpt: as §1, §2
# [19] = tested on: corn (Zea mays); assay: Test C; design: key: 0 was no effect; 100 was complete control; conditions: PREEMERGENCE
# [20] = tested on: arrowleaf sida (Sida rhombifolia); assay: Test C; conditions: PREEMERGENCE
compound,measurement,setting,value
Cc1cnc(-c2ccc(C(F)(F)F)cc2)nc1Cc1cccc(OC(F)(F)F)c1 [Compound 15],"Plant response rating, Sandbur",[1]; Rate 32 g/ha,10
same,"Plant response rating, Sandbur",[1]; Rate 64 g/ha,20
same,"Plant response rating, Sandbur",[1]; Rate 125 g/ha,50
same,"Plant response rating, Johnsongrass","[2]; POSTEMERGENCE, Rate 125 g/ha",98
same,"Plant response rating, Johnsongrass","[2]; PREEMERGENCE, Rate 32 g/ha",60
same,"Plant response rating, Johnsongrass","[2]; PREEMERGENCE, Rate 64 g/ha",90
same,"Plant response rating, Johnsongrass","[2]; PREEMERGENCE, Rate 125 g/ha",90
same,"Plant response rating, Alexandergrass","[3]; POSTEMERGENCE, Rate 125 g/ha",10
same,"Plant response rating, Alexandergrass","[3]; POSTEMERGENCE, Rate 250 g/ha",20
same,"Plant response rating, Alexandergrass","[3]; PREEMERGENCE, Rate 32 g/ha",75
same,"Plant response rating, Alexandergrass","[3]; PREEMERGENCE, Rate 64 g/ha",80
same,"Plant response rating, Surinam grass","[4]; POSTEMERGENCE, Rate 125 g/ha",35
same,"Plant response rating, Surinam grass","[4]; POSTEMERGENCE, Rate 250 g/ha",40
same,"Plant response rating, Surinam grass","[4]; PREEMERGENCE, Rate 32 g/ha",20
same,"Plant response rating, Surinam grass","[4]; PREEMERGENCE, Rate 64 g/ha",20
same,"Plant response rating, Com. groundsel","[5]; POSTEMERGENCE, Rate 250 g/ha",20
same,"Plant response rating, Com. groundsel","[5]; PREEMERGENCE, Rate 64 g/ha",98
same,"Plant response rating, Large crabgrass","[6]; POSTEMERGENCE, Rate 125 g/ha",10
same,"Plant response rating, Large crabgrass","[6]; POSTEMERGENCE, Rate 250 g/ha",40
same,"Plant response rating, Large crabgrass","[6]; PREEMERGENCE, Rate 32 g/ha",98
same,"Plant response rating, Com. ragweed","[7]; POSTEMERGENCE, Rate 125 g/ha",5
same,"Plant response rating, Com. ragweed","[7]; POSTEMERGENCE, Rate 250 g/ha",10
same,"Plant response rating, Com. ragweed","[7]; PREEMERGENCE, Rate 125 g/ha",98
same,"Plant response rating, Spanishneedles","[8]; POSTEMERGENCE, Rate 125 g/ha",5
same,"Plant response rating, Spanishneedles","[8]; POSTEMERGENCE, Rate 250 g/ha",10
same,"Plant response rating, Spanishneedles","[8]; PREEMERGENCE, Rate 32 g/ha",50
same,"Plant response rating, Spanishneedles","[8]; PREEMERGENCE, Rate 64 g/ha",30
same,"Plant response rating, Spanishneedles","[8]; PREEMERGENCE, Rate 125 g/ha",98
same,"Plant response rating, Itchgrass","[9]; POSTEMERGENCE, Rate 125 g/ha",80
same,"Plant response rating, Itchgrass","[9]; POSTEMERGENCE, Rate 250 g/ha",85
same,"Plant response rating, Itchgrass","[9]; PREEMERGENCE, Rate 32 g/ha",10
same,"Plant response rating, Itchgrass","[9]; PREEMERGENCE, Rate 64 g/ha",30
same,"Plant response rating, Itchgrass","[9]; PREEMERGENCE, Rate 125 g/ha",60
same,"Plant response rating, Itchgrass","[9]; PREEMERGENCE, Rate 250 g/ha",80
same,"Plant response rating, Bermudagrass","[10]; POSTEMERGENCE, Rate 125 g/ha",20
same,"Plant response rating, Bermudagrass","[10]; POSTEMERGENCE, Rate 250 g/ha",20
same,"Plant response rating, Bermudagrass","[10]; PREEMERGENCE, Rate 32 g/ha",98
same,"Plant response rating, Bermudagrass","[10]; PREEMERGENCE, Rate 64 g/ha",98
same,"Plant response rating, Bermudagrass","[10]; PREEMERGENCE, Rate 125 g/ha",98
same,"Plant response rating, Bermudagrass","[10]; PREEMERGENCE, Rate 250 g/ha",98
same,"Plant response rating, P. morninglory","[11]; POSTEMERGENCE, Rate 125 g/ha",5
same,"Plant response rating, P. morninglory","[11]; POSTEMERGENCE, Rate 250 g/ha",5
same,"Plant response rating, P. morninglory","[11]; PREEMERGENCE, Rate 32 g/ha",5
same,"Plant response rating, P. morninglory","[11]; PREEMERGENCE, Rate 64 g/ha",40
same,"Plant response rating, P. morninglory","[11]; PREEMERGENCE, Rate 125 g/ha",75
same,"Plant response rating, P. morninglory","[11]; PREEMERGENCE, Rate 250 g/ha",90
same,"Plant response rating, Soybean",[12]; Rate 35 g/ha,0
same,"Plant response rating, Soybean",[12]; Rate 70 g/ha,10
same,"Plant response rating, Soybean",[12]; Rate 140 g/ha,10
same,"Plant response rating, I. morningglory",[13]; Rate 35 g/ha,15
same,"Plant response rating, I. morningglory",[13]; Rate 70 g/ha,20
same,"Plant response rating, I. morningglory",[13]; Rate 140 g/ha,65
same,"Plant response rating, Large crabgrass",[14]; Rate 35 g/ha,100
same,"Plant response rating, Large crabgrass",[14]; Rate 70 g/ha,100
same,"Plant response rating, Large crabgrass",[14]; Rate 140 g/ha,100
same,"Plant response rating, Cocklebur",[15]; Rate 35 g/ha,0
same,"Plant response rating, Cocklebur",[15]; Rate 70 g/ha,0
same,"Plant response rating, Cocklebur",[15]; Rate 140 g/ha,5
same,"Plant response rating, Purple nutsedge",[16]; Rate 35 g/ha,0
same,"Plant response rating, Purple nutsedge",[16]; Rate 70 g/ha,0
same,"Plant response rating, Purple nutsedge",[16]; Rate 140 g/ha,0
same,"Plant response rating, Sandbur",[17]; Rate 125 g/ha,0
same,"Plant response rating, Sandbur",[17]; Rate 250 g/ha,0
same,"Plant response rating, Purple nutsedge","[18]; POSTEMERGENCE, Rate 125 g/ha",0
same,"Plant response rating, Purple nutsedge","[18]; POSTEMERGENCE, Rate 250 g/ha",0
same,"Plant response rating, Purple nutsedge","[18]; PREEMERGENCE, Rate 32 g/ha",0
same,"Plant response rating, Purple nutsedge","[18]; PREEMERGENCE, Rate 64 g/ha",0
same,"Plant response rating, Purple nutsedge","[18]; PREEMERGENCE, Rate 125 g/ha",0
same,"Plant response rating, Purple nutsedge","[18]; PREEMERGENCE, Rate 250 g/ha",0
same,"Plant response rating, Corn",[19]; Rate 35 g/ha,0
same,"Plant response rating, Corn",[19]; Rate 70 g/ha,5
same,"Plant response rating, Corn",[19]; Rate 140 g/ha,10
same,"Plant response rating, Arrowleaf sida",[20]; Rate 35 g/ha,80
same,"Plant response rating, Arrowleaf sida",[20]; Rate 70 g/ha,85
same,"Plant response rating, Arrowleaf sida",[20]; Rate 140 g/ha,85
